Measurements reported in patent publication US8889639B2, “Compositions and methods for modulating PGC-1β to treat lipid-related diseases and disorders” (Dana-Farber Cancer Institute, Inc., priority 2004, dated 2014).

What was measured:
LXRα = test: 4×LXRE-luc reporter in H2.35 hepatoma cells; format: cell-based, mouse; details: reporter containing multimerized LXR responsive elements, RNAi cotransfection
Experimental: FIG. 6A-E illustrate the coactivation of LXRα by PGC-1α and PGC-1β. In particular, FIG. 6A depicts H2.35 hepatoma cells that were transiently transfected with 4×LXRE-luc in combination with plasmids. Transfected cells were treated with either vehicle DMSO (open box) or 10 μM of the LXR agonist T0901317 (filled box) for 24 hours before luciferase assay. FIG. 6B depicts H2.35 hepatoma cells that were transiently transfected with wild-type ABCA1 promoter reporter plasmid-(ABCA1-luc) or a mutant lacking the LXRE (ABCA1 ΔLXRE-luc) in combination with plasmids. Transfected cells were treated with vehicle or T0901317 as described in FIG. 6A. FIG. 6C depicts CHIP analysis on LXR target genes. H2.35 cells were infected with adenoviruses expressing GFP, flag-PGC-1α or flag-PGC-1β. Cells were treated with 10 μM of T0901317 for 3 hours before harvesting. PCR was performed on input or precipitated DNA using primers as indicated FIG. 6D depicts the interaction between LXRα and the N-termini of the PGC-1β proteins. […]
FIGS. 7A-H illustrate the requirement for PGC-1β in SREBP-mediated transcription. […] Luciferase activity was measured 48 hours after transfection. […] Total RNA was isolated from infected cells and analyzed by real-time PCR using primers specific for the genes. […] Relative SREBP1c expression was determined by real-time PCR analysis and normalized to 18S rRNA. […]

SREBP2 and SREBP1a = test: FAS -700 luc reporter with SREBP2 and SREBP1a and PGC-1β RNAi constructs in hepatoma cells; format: cell-based, mouse; details: FAS promoter reporter
Excerpt: (§1) FIGS. 7A-H illustrate the requirement for PGC-1β in SREBP-mediated transcription. In particular, FIG. 7A depicts knockdown of PGC-1β protein levels by RNAi constructs. Cultured 293 cells were transiently transfected with PGC-1β expression plasmid (f-PGC-1β) in the presence of RNAi constructs or a vector control. Transfected cells were harvested for immunoblotting using a monoclonal antibody against the Flag epitope. Both RNAi constructs decrease PGC-1β protein levels compared to the vector control. FIGS. 7 B-E depict hepatoma cells that were transiently transfected with FAS—700 luc (B-C), G6Pase −1200 luc (D) or 4×LXRE-luc (E) in combination with plasmids. For RNAi, either a vector control or RNAi constructs directed toward PGC-1β were included in the transfection experiments. Luciferase activity was measured 48 hours after transfection. FIG. 7F depicts knockdown of PGC-1β protein by adenoviral expression of RNAi. H2.35 hepatoma cells were infected with Ad-GFP or Ad-RNAi for two days and then infected with Ad-PGC-1β. Total lysates were prepared for immunoblotting analysis using antibodies raised against PGC-1β. […] Total RNA was isolated from infected cells and analyzed by real-time PCR using primers specific for the genes. […] Relative SREBP1c expression was determined by real-time PCR analysis and normalized to 18S rRNA. […]

G6Pase promoter = test: G6Pase -1200 luc reporter with PGC-1α and HNF4α and PGC-1β RNAi constructs in hepatoma cells; format: cell-based, mouse
Excerpt: as §1

PGC-1β = test: Free fatty acid treatment of primary hepatocytes, PGC-1β mRNA by real-time PCR; format: cell-based, mouse; details: 400 μM fatty acid, 4 hours
Excerpt: FIGS. 1A-D depict the induction of PGC-1β expression by dietary intake of saturated fats. In particular, FIG. 1A depicts a cluster analysis of liver gene expression in response to high-fat feeding. FIG. 1A exemplifies genes involved in hepatic lipogenesis that are induced more than 1.8-fold in response to high-fat feeding. A representative probe set was used in generating the tree in the event multiple probe sets were available for a single gene. SREBP1c and PGC-1β were included in this lipogenic cluster. FIG. 1B depicts the real-time PCR analysis of total liver RNA from mice fed a high-fat diet for 1 day (hatched box) or 2 days (filled box). Relative mRNA abundance was calculated by normalization to the control chow values (open box); N=4;*: p<0.01. FIG. 1C depicts the real-time PCR analysis of total liver RNA from mice fed a control diet containing 0.07% cholesterol (open box) or a diet containing 2% cholesterol for 1 day (hatched box) or 2 days (filled box). Values were normalized to those from mice fed the control diet; N=4;*: p<0.02. FIG. 1D depicts the regulation of PGC-1β expression by free fatty acids in isolated hepatocytes. Primary hepatocytes were treated with 400 μM of various fatty acids for 4 hours. Total RNA was isolated and analyzed by realtime PCR using primers specific for […] and PGC-1β (open box); *: p<0.01.
Primary hepatocytes were isolated following perfusion of whole liver first with perfusion buffer (Hank's Balanced Saline, HBSS) and then a collagenase solution (HBSS with 1% BSA and 0.05% collagenase). Dispersed cells were resuspended and seeded onto collagen-coated plates in DMEM supplemented with 10% FBS in the presence of 1 mM sodium pyruvate, 1 μM dexamethasone and 50 nM insulin. The cells were subsequently maintained in DMEM supplemented with 0.1% BSA and 1 mM sodium pyruvate for 24 hours before treatments. Free fatty acids were dissolved in ethanol as 100 mM stock solutions for further dilution in DMEM supplemented with 0.5% BSA to a final concentration of 400 μM. Hepatocytes were treated for 4 hours before RNA isolation and analysis.
(§2) Total RNA was isolated from liver or cultured hepatocytes using Trizol reagent (Invitrogen™). For real-time PCR analysis, cDNA was synthesized by reverse transcription using random primers and subjected to PCR amplification with genespecific primers in the presence of Cybergreen (Biorad™). Relative abundance of mRNA was calculated after normalization to 18S ribosomal RNA. For hybridization, 20 μg of total RNA was resolved on a formaldehyde gel, transferred to nylon membrane and hybridized with 32P-labeled gene-specific probes. Hybridization to ribosomal protein 36B4 was included as loading control.

hepatic gene expression = test: High-cholesterol feeding, liver gene expression by real-time PCR; format: in vivo, mouse; details: diet containing 2% cholesterol vs 0.07% control
Experimental: Animals were fed a standard rodent chow and housed in a controlled environment with twelve-hour light and dark cycles. For high-fat feeding, three-month old male C57/B16J mice were switched to a diet containing 58% fat-derived calorie (D12331, Research Diets™) for 24 or 48 hours. For high-cholesterol feeding, two groups of mice were fed a base diet supplemented with either 0.07% or 2% cholesterol for 24 or 48 hours. Liver was dissected and immediately frozen for RNA isolation. The feeding experiments were repeated three times with four mice per group for each dietary treatment.
as §2
To examine whether dietary cholesterol had any impact on the expression of SREBPs and PGC-1β mice were fed a control diet containing 0.07% cholesterol or a similar diet containing 2% cholesterol. […] This induction of the genetic program of hepatic lipogenesis following acute intake of a high saturated fat diet was not previously observed.

PGC-1α = test: Free fatty acid treatment of primary hepatocytes, PGC-1α mRNA by real-time PCR; format: cell-based, mouse; details: 400 μM fatty acid, 4 hours
Experimental: FIG. 1D depicts the regulation of PGC-1β expression by free fatty acids in isolated hepatocytes. Primary hepatocytes were treated with 400 μM of various fatty acids for 4 hours. Total RNA was isolated and analyzed by realtime PCR using primers specific for PGC-1β (filled box) and PGC-1β (open box); *: p<0.01.
Total RNA was isolated from liver or cultured hepatocytes using Trizol reagent (Invitrogen™). […] Relative abundance of mRNA was calculated after normalization to 18S ribosomal RNA.

5′-GATATCCTCTGTGATGTTA-3′ (expressed or natural sequence) [SEQ ID NO 60, PGC-1β RNAi construct in pSUPER-retro vector under the H1-RNA promoter]
LXRα/RXRα transcriptional activity (LXRα): do not alter | SREBP transcriptional activity with SREBP2 and SREBP1a (SREBP2 and SREBP1a): very similar reduction | regulation of G6Pase promoter activity by PGC-1α and HNF4α (G6Pase promoter): little or no effect

5′-GTACGGAACTGCATAAGCA-3′ (expressed or natural sequence; the letters are possibly those of the target site) [SEQ ID NO:61, PGC-1β RNAi construct in pSUPER-retro vector under the H1-RNA promoter]
LXRα/RXRα transcriptional activity (LXRα): do not alter | SREBP transcriptional activity with SREBP2 and SREBP1a (SREBP2 and SREBP1a): very similar reduction | regulation of G6Pase promoter activity by PGC-1α and HNF4α (G6Pase promoter): little or no effect

CC/C=C\C/C=C\C/C=C\C/C=C\C/C=C\CCCC(=O)O [EPA]
PGC-1β expression (PGC-1β): only slightly induce

CCCCC/C=C\C/C=C\C/C=C\C/C=C\CCCC(=O)O [arachidonic acid]
PGC-1β expression (PGC-1β): only slightly induce

CC(C)CCC[C@@H](C)[C@H]1CC[C@H]2[C@@H]3CC=C4C[C@@H](O)CC[C@]4(C)[C@H]3CC[C@]12C [cholesterol]
SREBP1c mRNA (hepatic gene expression): slightly increased | expression of PGC-1β (hepatic gene expression): not altered | hepatic expression of mRNA encoding SREBP2, along with HMGCoA reductase (hepatic gene expression): suppresses | mRNA level of FAS, SCD-1 and glucose kinase (GK) (hepatic gene expression): remains largely unchanged

CCCCCCCC/C=C/CCCCCCCC(=O)O [elaidic acid]
expression of PGC-1α (PGC-1α): 3.2 fold

CCCCC/C=C\C/C=C\CCCCCCCC(=O)O [linoleic acid]
PGC-1β expression (PGC-1β): only slightly induce

CCCCCCCC/C=C\CCCCCCCC(=O)O [oleic acid]
PGC-1β expression (PGC-1β): only slightly induce

CCCCCCCCCCCCCCCCCC(=O)O [stearic acid]
PGC-1β mRNA (PGC-1β): 2.2 fold

CCCCCC/C=C/CCCCCCCCCC(=O)O [trans-vaccenic acid]
expression of PGC-1α (PGC-1α): 3.2 fold
